Patent publication US12194051B2, “5-azaindazole derivatives as adenosine receptor antagonists” (MERCK PATENT GMBH, priority 2018, dated 2025)

How the values were obtained:
human A2A receptors = target: T1, human A2A receptors (Homo sapiens, UniProt P29274); assay: Inhibition of human A2A receptor in recombinant HEK293 cells, cAMP quantification (HTRF); assay type: cell-based; settings: read-out: A2A (Category)
T1 construct: expressed in transfected cells; host or cells: HEK293
Summary of the method: (§1)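 Following a 15 min incubation, HTRF detection reagents are added and intracellular cAMP is quantified.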

human A2B receptors = target: T2, human A2B receptors (Homo sapiens, UniProt P29275); assay: Inhibition of human A2B receptor in recombinant HEK293 cells, cAMP quantification (HTRF); assay type: cell-based; settings: read-out: A2B (Category)
T2 construct: expressed in transfected cells; host or cells: HEK293
T2 sequence (P29275 1-332): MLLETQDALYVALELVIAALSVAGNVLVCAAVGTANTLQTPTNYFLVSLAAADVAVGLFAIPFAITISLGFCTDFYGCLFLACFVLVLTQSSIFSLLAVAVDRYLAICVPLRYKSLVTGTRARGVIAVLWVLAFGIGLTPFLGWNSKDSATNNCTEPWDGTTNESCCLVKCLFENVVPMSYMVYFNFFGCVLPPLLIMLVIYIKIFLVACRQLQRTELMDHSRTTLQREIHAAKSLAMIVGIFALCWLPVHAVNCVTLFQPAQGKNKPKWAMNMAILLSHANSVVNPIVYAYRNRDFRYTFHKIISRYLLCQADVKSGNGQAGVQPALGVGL
Summary of the method: as §1

T1 sequence (P29274 whole entry): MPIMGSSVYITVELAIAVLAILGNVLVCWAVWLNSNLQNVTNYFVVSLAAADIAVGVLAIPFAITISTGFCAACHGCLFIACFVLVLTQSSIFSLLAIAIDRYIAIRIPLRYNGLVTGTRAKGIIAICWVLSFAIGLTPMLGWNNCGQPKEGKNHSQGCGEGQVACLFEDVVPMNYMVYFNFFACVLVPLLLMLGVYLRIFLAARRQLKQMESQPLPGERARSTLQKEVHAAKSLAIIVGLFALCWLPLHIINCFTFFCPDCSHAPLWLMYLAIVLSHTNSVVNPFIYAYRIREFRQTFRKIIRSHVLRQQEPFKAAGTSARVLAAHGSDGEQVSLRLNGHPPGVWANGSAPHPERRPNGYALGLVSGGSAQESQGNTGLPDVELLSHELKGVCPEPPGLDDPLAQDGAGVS

Row | Structure (SMILES) | IC50 (human A2A receptors) | IC50 (human A2B receptors)
1 | O=C(c1cc2c(cn1)c(Nc1ccccn1)nn2CC(F)(F)F)N1CC2CCC(C1)O2 [Compound 47, 8-oxa-3-azabicyclo[3.2.1]octan-3-yl-[3-(2-pyridylamino)-1-(2,2,2-trifluoroethyl)pyrazolo[4,3-c]pyridin-6-yl]methanone] | < 100 nM | < 100 nM
2 | O=C(c1cc2c(cn1)c(Nc1ccc(F)cc1)nn2CC(F)(F)F)N1CC2CCC(C1)O2 [Compound 21, [3-(4-fluoroanilino)-1-(2,2,2-trifluoroethyl)pyrazolo[4,3-c]pyridin-6-yl]-(8-oxa-3-azabicyclo[3.2.1]octan-3-yl)methanone] | < 100 nM | < 100 nM
3 | O=C(c1cc2c(cn1)c(Nc1cc(F)ccn1)nn2CC(F)(F)F)N1CCOC[C@@H](F)C1 [Compound 110, [(6S)-6-fluoro-1,4-oxazepan-4-yl]-[3-(4-fluoro-pyridin-2-ylamino)-1-(2,2,2-trifluoro-ethyl)-1H-pyrazolo[4,3-c]pyridin-6-yl]-methanone] | < 100 nM | < 100 nM
4 | O=C(c1cc2c(cn1)c(Nc1cnccn1)nn2CC(F)(F)F)N1CCC(F)CC1 [Compound 124, [3-(pyrazin-2ylamino)-1-(2,2,2-trifluoro-ethyl)-1H-pyrazolo[4,3-c]pyridin-6-yl]-(4-fluoro-piperidin-1-yl)-methanone] | < 100 nM | < 1000 nM
5 | O=C(c1cc2c(cn1)c(Nc1cnccn1)nn2CC(F)(F)F)N1CCC(O)CC1 [Compound 74, (4-Hydroxy-piperidin-1-yl)-[3-(pyrazin-2-ylamino)-1-(2,2,2-trifluoro-ethyl)-1H-pyrazolo[4,3-c]pyridin-6-yl]-methanone] | < 100 nM | < 100 nM
6 | O=C(c1cc2c(cn1)c(Nc1ccc(F)c(Cl)c1)nn2CC(F)(F)F)N1CCCOCC1 [Compound 18, [3-(3-chloro-4-fluoroanilino)-1-(2,2,2-trifluoroethyl)pyrazolo[4,3-c]pyridin-6-yl]-(1,4-oxazepan-4-yl)methanone] | < 100 nM | < 1000 nM
7 | Cc1ccc(Nc2nn(CC(F)(F)F)c3cc(C(=O)N4CCCOCC4)ncc23)cc1F [Compound 16, [3-(3-fluoro-4-methylanilino)-1-(2,2,2-trifluoroethyl)pyrazolo[4,3-c]pyridin-6-yl]-(1,4-oxazepan-4-yl)methanone] | < 100 nM | < 100 nM
8 | [2H]C1([2H])COCCN(C(=O)c2cc3c(cn2)c(Nc2cnccn2)nn3CC(F)(F)F)C1 [Compound 121] | < 100 nM | < 1000 nM
9 | O=C(c1cc2c(cn1)c(Nc1ccc(F)cn1)nn2CC(F)(F)F)N1CCC[C@@H](CO)C1 [Compound 101, [3-[(5-fluoro-2-pyridyl)amino]-1-(2,2,2-trifluoroethyl)pyrazolo[4,3-c]pyridin-6-yl]-[(3R)-3-(hydroxymethyl)-1-piperidyl]methanone] | < 100 nM | < 100 nM
10 | O=C(c1cc2c(cn1)c(Nc1ccc(F)cc1)nn2CC(F)(F)F)N1CCOCC(O)C1 (stereo not shown) [Compound 33, [3-(4-fluoroanilino)-1-(2,2,2-trifluoroethyl)pyrazolo[4,3-c]pyridin-6-yl]-(6-hydroxy-1,4-oxazepan-4-yl)methanone] | < 100 nM | < 1000 nM
11 | O=C(c1cc2c(cn1)c(Nc1cccc(=O)[nH]1)nn2CC(F)(F)F)N1CCCOCC1 [Compound 86, 6-[6-([1,4]Oxazepane-4-carbonyl)-1-(2,2,2-trifluoro-ethyl)-1H-pyrazolo[4,3-c]pyridin-3-ylamino]-1H-pyridin-2-one] | < 100 nM | < 1000 nM
12 | O=C(c1cc2c(cn1)c(Nc1cccc(F)c1)nn2CC(F)(F)F)N1CCCOCC1 [Compound 6, [3-(3-fluoroanilino)-1-(2,2,2-trifluoroethyl)pyrazolo[4,3-c]pyridin-6-yl]-(1,4-oxazepan-4-yl)methanone] | < 100 nM | < 100 nM
13 | CS(=O)(=O)Cn1nc(Nc2cccc(F)c2)c2cnc(C(=O)N3[C@@H]4CC[C@H]3C[C@@H](O)C4)cc21 [Compound 31, [3-(3-fluoroanilino)-1-(methylsulfonylmethyl)pyrazolo[4,3-c]pyridin-6-yl]-(3-endo-hydroxy-8-azabicyclo[3.2.1]octan-8-yl)methanone] | < 100 nM | < 100 nM
14 | CC1(O)CCN(C(=O)c2cc3c(cn2)c(Nc2ccc(F)cc2)nn3CC(F)(F)F)CC1 [Compound 34, [3-(4-fluoroanilino)-1-(2,2,2-trifluoroethyl)pyrazolo[4,3-c]pyridin-6-yl]-(4-hydroxy-4-methyl-1-piperidyl)methanone] | < 100 nM | < 1000 nM
15 | CCC1(O)CCN(C(=O)c2cc3c(cn2)c(Nc2cc(F)ccn2)nn3CC(F)(F)F)CC1 [Compound 113, [3-(4-Fluoro-pyridin-2-ylamino)-1-(2,2,2-trifluoro-ethyl)-1H-pyrazolo[4,3-c]pyridin-6-yl]-(4-ethyl-4-hydroxypiperidin-1-yl)-methanone] | < 100 nM | < 100 nM
16 | O=C(c1cc2c(cn1)c(Nc1ccc(Cl)cn1)nn2CC(F)(F)F)N1CCCOCC1 [Compound 48, [3-[(5-chloro-2-pyridyl)amino]-1-(2,2,2-trifluoroethyl)pyrazolo[4,3-c]pyridin-6-yl]-(1,4-oxazepan-4-yl)methanone] | < 100 nM | < 100 nM
17 | O=C(c1cc2c(cn1)c(Nc1ccc(F)cn1)nn2CC(F)(F)F)N1CCC[C@@H](O)C1 [Compound 97, [(3R)-3-hydroxy-piperidin-1-yl]-[3-(5-Fluoro-pyridin-2-ylamino)-1-(2,2,2-trifluoro-ethyl)-1H-pyrazolo[4,3-c]pyridin-6-yl]-methanone] | < 100 nM | < 1000 nM
18 | O=C(c1cc2c(cn1)c(Nc1ccc(F)cn1)nn2CC(F)(F)F)N1[C@@H]2CC[C@H]1C[C@@H](O)C2 [Compound 107, [3-[(5-fluoro-2-pyridyl)amino]-1-(2,2,2-trifluoroethyl)pyrazolo[4,3-c]pyridin-6-yl]-(3-endo-hydroxy-8-azabicyclo[3.2.1]octan-8-yl)methanone] | < 100 nM | < 100 nM
19 | COc1cc(Nc2nn(CC(F)(F)F)c3cc(C(=O)N4CCCOCC4)ncc23)ncc1F [Compound 81, [3-[(5-fluoro-4-methoxy-2-pyridyl)amino]-1-(2,2,2-trifluoroethyl)pyrazolo[4,3-c]pyridin-6-yl]-(1,4-oxazepan-4-yl)methanone] | < 100 nM | < 1000 nM
20 | CS(=O)(=O)Cn1nc(Nc2cc(Cl)ccn2)c2cnc(C(=O)N3CCCOCC3)cc21 [Compound 79, [3-(4-Chloro-pyridin-2-ylamino)-1-methanesulfonylmethyl-1H-pyrazolo[4,3-c]pyridin-6-yl]-[1,4]oxazepan-4-yl-methanone] | < 100 nM | < 100 nM
21 | CS(=O)(=O)Cn1nc(Nc2ccc(F)cc2)c2cnc(C(=O)N3[C@@H]4CC[C@H]3C[C@@H](O)C4)cc21 [Compound 30, [3-(4-fluoroanilino)-1-(methylsulfonylmethyl)pyrazolo[4,3-c]pyridin-6-yl]-(3-endo-hydroxy-8-azabicyclo[3.2.1]octan-8-yl)methanone] | < 100 nM | < 1000 nM
22 | CS(=O)(=O)Cn1nc(Nc2ccccc2)c2cnc(C(=O)N3[C@@H]4CC[C@H]3C[C@@H](O)C4)cc21 [Compound 29, [3-anilino-1-(methylsulfonylmethyl)pyrazolo[4,3-c]pyridin-6-yl]-(3-endo-hydroxy-8-azabicyclo[3.2.1]octan-8-yl)methanone] | < 100 nM | < 100 nM
23 | O=C(c1cc2c(cn1)c(Nc1ccc(F)cc1)nn2CC(F)(F)F)N1CCC(O)CC1 [Compound 22, [3-(4-fluoroanilino)-1-(2,2,2-trifluoroethyl)pyrazolo[4,3-c]pyridin-6-yl]-(4-hydroxy-1-piperidyl)methanone] | < 100 nM | < 100 nM
